From US11058677B2, “LFA-1 inhibitor formulations” (Novartis AG, priority 2012, dated 2021)

Legend:
[1] = Effect of pH on stability of formulation with antioxidant (metabisulfite); format: physicochemical; conditions: metabisulfite salt, pH 6.0 and 7.0, about 40° C., about four months
Method: Two solutions of the compound of Formula 1 were prepared. The pH of the first solution was buffered to 6.0 and the pH of the second solution was also buffered to 7.0. A metabisulfite salt was added to both the solutions and were stored at a temperature of about 40° C. for a period of about four months. The percentage of total degradates was measured for each solution after about every four weeks. The results of this experiment are graphically represented in FIG. 10.

[2] = Degradation profile of 1.0% and 5.0% w/v solutions (degradation mechanism); format: physicochemical
Description: The results of these experiments are graphically represented in FIG. 7.

[3] = Stability of three different formulations (total degradates at 40° C.); format: physicochemical
Method: Three separate solutions of the compound of Formula 1 of same concentration were prepared. The first solution (pH=6.0) was stored at 40° C. without any further additives for about four months. The second solution (pH=6.0) was further treated with a metabisulfite salt and allowed to stand at 40° C. for about four months. The pH of the third solution was buffered to pH 7.5 and allowed to stand at 40° C. for about 4 months without any further additives. The percentage of total degradates was measured for each solution after about every 4 weeks. The results of this experiment are graphically represented in FIG. 2.

[4] = Effect of antioxidants on stability of 3% w/v solutions; format: physicochemical; conditions: pH 6.5 with 0.3% w/v thiosulfate salt (40, 50, 60° C.) vs pH 7.5 without antioxidant at 40° C., about nine weeks
Method: Four separate solutions containing 3% w/v of the compound of Formula 1 were prepared. The pH of the first solution was buffered to 6.5, 0.3% w/v thiosulfate salt was added and the solution was stored at 50° C. for about nine weeks. The pH of the second solution was adjusted to 6.5, 0.3% thiosulfate salt was added and the solution was stored at 40° C. for about nine weeks. The pH of the third solution was buffered to 6.5, 0.3% thiosulfate salt was added and the solution was allowed to stand at 60° C. for about nine […]. No antioxidant was added to the fourth solution which was buffered to a pH of 7.5 and allowed to stand at a temperature of 40° C. for about 9 weeks. The percentage of total degradates was measured for each solution after about every 2-4 weeks. The results of this experiment are graphically represented in FIG. 3.

[5] = Effect of concentration (and EDTA) on formulation stability; format: physicochemical; conditions: solutions with and without 0.1% EDTA
Method: Three different concentrations of the compound of Formula 1, 1.0%, 3.0% and 5.0% were studied. The samples were monitored at a temperature of 40° C. The pH of the three solutions was maintained in the range of 7.0-7.5. The total % degradation of the three solutions was monitored with respect to time. The results of this experiment are graphically represented in FIG. 4.
Solutions both with and without 0.1% EDTA were monitored.

Systemic clearance = conditions: in vivo
[6] = Stability of 5.0% solution (percentage of total degradates on storage); format: physicochemical; conditions: for individual degradate versus ICH qualification threshold: about 2 months
Method: Three separate 5.0% aqueous solutions of the compound of Formula 1 were prepared and allowed to stand at temperatures of about 5° C., 25° C., and 40° C. respectively for a period of about 15 months. The percentage of total degradates was measured for each solution after about every 4 weeks. The results of this experiment are graphically represented in FIG. 1.

[7] = Effect of pH on stability, no antioxidant (one month); format: physicochemical; conditions: pH 6.0, 7.0, 7.5, 8.0, 8.5, no antioxidant, about 40° C.
Method: Five different solutions of the compound of Formula 1 were prepared. The first solution was buffered to a pH of 6.0, the second solution was buffered to pH 7.0, the third solution was buffered to pH 7.5, the fourth solution was buffered to pH 8.0, and the fifth solution was buffered a pH of 8.5. No antioxidant was added and all solutions were stored at a temperature of about 40° C. for a period of about one month after which the percentage of total degradates was measured for each solution. The results of this experiment are graphically represented in FIG. 12.

[8] = Effect of sparging with nitrogen on stability; format: physicochemical; conditions: about 40° C., about four months
Method: Four separate solutions of the compound of Formula 1 were prepared. The pH of the first solution was buffered to 6.0. The pH of the second solution was also buffered to 6.0 and the solution was additionally sparged with nitrogen. The pH of the third solution was buffered to 7.0. The pH of the fourth solution was also buffered to 7.0 and the solution was further sparged with nitrogen. All the four solutions were stored at a temperature of about 40° C. for a period of about four months. The percentage of total degradates was measured for each solution after about every four weeks. The results of this experiment are graphically represented in FIG. 8.

[9] = molecular target: LFA-1 interactions with ICAM-1 (Homo sapiens, UniProt P05107+P20701); experiment: Inhibition of LFA-1 interactions with ICAM-1
[10] = Effect of pH on stability of nitrogen sparged solutions (four months); format: physicochemical; conditions: pH 6.0, 7.0, 7.5, about 40° C.
Method: Three solutions of the compound of Formula 1 were prepared. The pH of the first solution was buffered to 6.0, the pH of the second solution was also buffered to 7.0 and pH of the third solution was buffered to 7.5. All the three solutions were sparged with nitrogen were stored at a temperature of about 40° C. for a period of about four months. The percentage of total degradates was measured for each solution after about every four weeks. The results of this experiment are graphically represented in FIG. 9.

[11] = Individual degradates A and B by HPLC analysis on storage; format: physicochemical; conditions: 5.0% w/v solutions, 40° C. vs 60° C., about nine weeks
Method: Two solutions containing 5.0% w/v of the compound of Formula 1 were prepared. The first solution was stored at 40° C. for about 9 weeks and the second solution was stored at 60° C. for a period of about nine weeks. The percentage of each of the two major degradates of Formula 1 (degradate A and degradate B) was measured by HPLC analysis for each solution after about every 2-4 weeks. The results of this experiment are graphically represented in FIG. 5.

[12] = Effect of various antioxidants on stability at pH 6.5; format: physicochemical; conditions: pH about 6.5, about 40° C., about one month, sodium thiosulfate (0.3% w/v) alone vs bisulfite, acetylcysteine, thioglycerol, Vitamin E TPGS, ascorbic acid
Method: Seven different solutions of Formula 1, buffered at a pH of about 6.5, were prepared. Sodium bisulfite (0.2% w/v) and sodium thiosulfate (0.3% w/v) were added to the first solution, sodium bisulfite (0.2% w/v) was added to the second solution, sodium thiosulfate (0.3% w/v) was added to the third solution, acetylcysteine (0.2% w/v) was added to the fourth solution, thioglycerol (0.2% w/v) was added to the fifth solution, Vitamin E TPGS ([…]) was added to the sixth solution, and ascorbic acid (0.3% w/v) was added to the seventh solution. All solutions were stored at a temperature of about 40° C. for a period of about one month after which the percentage of total degradates was measured for each solution. The results of this experiment are graphically represented in FIG. 11.

LFA-1 interactions with ICAM-1, sequence (P20701 26-1170): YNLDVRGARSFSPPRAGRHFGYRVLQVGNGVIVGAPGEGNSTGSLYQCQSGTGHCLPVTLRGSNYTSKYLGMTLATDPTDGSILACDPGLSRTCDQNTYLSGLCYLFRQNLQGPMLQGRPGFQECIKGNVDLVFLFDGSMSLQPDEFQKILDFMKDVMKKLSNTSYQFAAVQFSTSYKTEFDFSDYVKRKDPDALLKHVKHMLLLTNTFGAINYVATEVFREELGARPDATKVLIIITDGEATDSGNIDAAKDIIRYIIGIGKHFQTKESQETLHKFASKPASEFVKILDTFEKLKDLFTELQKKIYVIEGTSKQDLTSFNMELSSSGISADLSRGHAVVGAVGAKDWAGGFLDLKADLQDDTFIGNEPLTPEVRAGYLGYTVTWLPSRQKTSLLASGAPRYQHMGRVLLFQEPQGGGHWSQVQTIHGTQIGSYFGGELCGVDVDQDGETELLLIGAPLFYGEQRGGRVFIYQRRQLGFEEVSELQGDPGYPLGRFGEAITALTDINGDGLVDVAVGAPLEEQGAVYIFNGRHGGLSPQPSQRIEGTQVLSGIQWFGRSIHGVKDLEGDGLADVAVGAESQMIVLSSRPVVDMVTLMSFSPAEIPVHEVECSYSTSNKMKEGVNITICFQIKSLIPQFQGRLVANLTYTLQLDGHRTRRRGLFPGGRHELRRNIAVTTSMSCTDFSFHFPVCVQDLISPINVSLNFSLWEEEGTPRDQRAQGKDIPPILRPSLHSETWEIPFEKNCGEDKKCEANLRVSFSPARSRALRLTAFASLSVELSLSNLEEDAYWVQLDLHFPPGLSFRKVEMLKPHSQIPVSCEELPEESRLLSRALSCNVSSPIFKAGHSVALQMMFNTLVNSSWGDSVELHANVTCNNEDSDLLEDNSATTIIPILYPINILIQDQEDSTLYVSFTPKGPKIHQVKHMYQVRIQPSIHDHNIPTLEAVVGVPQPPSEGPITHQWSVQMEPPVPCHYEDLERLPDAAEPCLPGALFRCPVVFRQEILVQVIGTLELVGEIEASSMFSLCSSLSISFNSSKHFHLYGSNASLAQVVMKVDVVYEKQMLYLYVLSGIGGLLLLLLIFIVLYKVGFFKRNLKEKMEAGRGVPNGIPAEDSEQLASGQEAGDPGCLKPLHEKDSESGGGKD
LFA-1 interactions with ICAM-1, sequence (P05107 23-769): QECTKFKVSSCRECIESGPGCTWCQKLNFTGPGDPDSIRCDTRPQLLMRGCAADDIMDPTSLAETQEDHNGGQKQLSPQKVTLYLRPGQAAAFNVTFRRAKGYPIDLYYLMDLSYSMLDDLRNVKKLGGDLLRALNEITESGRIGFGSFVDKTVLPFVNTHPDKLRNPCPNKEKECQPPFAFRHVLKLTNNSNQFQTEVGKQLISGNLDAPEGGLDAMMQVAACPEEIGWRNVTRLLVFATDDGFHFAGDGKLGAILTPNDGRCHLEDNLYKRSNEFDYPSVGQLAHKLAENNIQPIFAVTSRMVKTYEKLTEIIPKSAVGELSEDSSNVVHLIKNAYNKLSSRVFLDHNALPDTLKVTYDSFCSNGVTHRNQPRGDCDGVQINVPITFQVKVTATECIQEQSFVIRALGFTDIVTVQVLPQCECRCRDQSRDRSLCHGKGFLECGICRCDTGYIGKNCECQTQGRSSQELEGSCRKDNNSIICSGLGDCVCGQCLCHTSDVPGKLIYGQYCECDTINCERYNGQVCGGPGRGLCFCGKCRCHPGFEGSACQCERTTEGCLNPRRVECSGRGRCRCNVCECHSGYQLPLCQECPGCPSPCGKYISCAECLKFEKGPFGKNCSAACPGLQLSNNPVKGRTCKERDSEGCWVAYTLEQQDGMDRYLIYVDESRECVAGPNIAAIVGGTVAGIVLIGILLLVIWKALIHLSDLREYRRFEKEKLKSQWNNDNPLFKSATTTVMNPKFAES

stability (total degradates), effect of added antioxidant ([3]; pH 6.0 with metabisulfite salt vs pH 6.0 without additives, about four months): increases the stability
stability (total degradates), effect of increasing pH ([3]; pH 7.5 without antioxidant vs pH 6.0 without additives, about 4 months): increases the stability
stability (total degradates), effect of added antioxidant [4]: increased the stability
stability, effect of presence or absence of EDTA [5]: did significantly change the stability
systemic clearance rate (Systemic clearance): rapid systemic clearance rate
total degradation product ([6]; 5.0% aqueous solution stored at 5° C., after about 6 months): about 5%
total degradation product ([6]; 5.0% aqueous solution stored at 25° C., in about 2 months): 5%
total degradation product ([6]; 5.0% aqueous solution stored at 40° C., in about 2 months): 5%
stability (total degradates), effect of pH [7]: higher pH exhibited better stability
stability (total degradates), effect of nitrogen sparging ([8]; pH 6.0 and pH 7.0, sparged vs not sparged): better stability
stability (total degradates), pH 7.0 vs pH 6.0 ([8]; with and without nitrogen sparging): improved stability
inhibition of LFA-1 interactions with ICAM-1 [9]: effective inhibitor
stability (total degradates), effect of pH [10]: higher pH exhibited improved stability
% formation of degradates A and B, effect of storage temperature [11]: did not significantly affect
stability (total degradates), comparison of antioxidants [12]: best overall stability
Structure (SMILES): CS(=O)(=O)c1cccc(C[C@H](NC(=O)c2c(Cl)cc3c(c2Cl)CCN(C(=O)c2ccc4ccoc4c2)C3)C(=O)O)c1 [compound of Formula 1]
degradation and pH sensitivity of stability, effect of antioxidant [1]: significantly reduces both the degradation of Formula 1 and the sensitivity of the stability of Formula 1 to pH
rate of degradation, 5.0% w/v vs 1.0% w/v solution ([2]; total percentage degradation about every four weeks for six months): greater than the rate of degradation of the 1.0 w/v solution
final level of degradation, 5.0% w/v vs 1.0% w/v solution ([2]; when a limiting reactant such as oxygen is reduced, six months): appear to reach the same level of degradation
individual degradant versus ICH qualification threshold ([6]; 5.0% aqueous solution stored at 5° C., about 6 months): no individual degradant above the ICH qualification threshold
individual degradate versus ICH qualification threshold ([6]; 5.0% aqueous solution stored at 25° C.): no individual degradate above the ICH qualification threshold
individual degradate versus ICH qualification threshold ([6]; 5.0% aqueous solution stored at 40° C.): no individual degradate above the ICH qualification threshold
